# Data as given in publication PMC9365693 (Nature, 2022).
# How the values were obtained:
# [1] = Scalar TOBSY ssNMR: mobility of the lipid II pentapeptide in the complex; type: binding; details: 8 kHz MAS, 300 K, compared with R4L10-teixobactin
# From the text: (§1) T1rho trajectories were fit to single exponentials.
# Interfacial contacts are labelled in green. Lipid II pentapeptide signals are marked with an asterisk, e.g., A1*αβ. b) Zoom into the spectrum acquired with 300 ms magnetization transfer. […] The spectrum is based on a scalar 2D ^13C^13C TOBSY[35] ssNMR experiment with the complex formed by ^13C,^15N-teixobactin and ^13C,^15N-Lipid II in liposomes acquired at 950 MHz, 8 kHz MAS, and 300 K temperature. Teixobactin and the Lipid II sugars are not visible in the spectrum (cyan). Conversely, the last three residues (Lys3-Ala4-Ala5) of the Lipid II pentapeptide give scalar signals indicating high mobility and no involvement in complex formation. […] Likewise, the K3αγ signal of the third pentapeptide residue was only visible for R4L10-teixobactin. […] All experiments were performed in triplicates. All the parameter values are shown as mean +/− SD.
# [2] = Intermolecular teixobactin–teixobactin ssNMR contacts (2D 13C13C); details: 2D 13C13C ssNMR, 600 ms transfer, lipid II-bound
# From the text: as §1
# Solid-state NMR ^13C-^13C PARISxy spectra of the ^13C,^15N-teixobactin – Lipid II complex in membranes show several cross-peaks (in red) that cannot be intramolecular contacts because this would require magnetization transfer over more than 10 Å. Rather, these cross-peaks correspond to intermolecular contacts between different teixobactin molecules and agree with the formation of antiparallel β-sheets.
# [3] = Isothermal titration calorimetry (ITC), lipid II-containing LUVs titrated into drug; type: binding; set-up: dG / dH / -TdS: unit not given here
# Method: Isothermal titration calorimetry
# For isothermal titration calorimetry (ITC) measurements large unilamellar vesicles (LUVs) containing lysine-lipid II were prepared by incorporating 2 mol% of lysine-lipid II in DOPC from the stock solution. The lipids were dried under a nitrogen stream and hydrated with buffer (20 mM HEPES and 50 mM NaCl, pH 7) to a lipid-phosphate concentration of 20 mM. Finally, unilamellar vesicles were obtained after ten rounds of extrusion through 200-nm membrane filters (Whatman Nuclepore, Track-Etch Membranes). ITC experiments were performed with the Affinity ITC (TA Instruments-Waters LLC) to determine interaction between LUVs and teixobactin. […] The samples were degassed before use. […] The number of injections was 23. Experiments were performed at 37 °C and analysed using the Nano Analyze Software (TA instruments-Water LLC). All experiments were performed in triplicates. Control experiments were performed with lipid II-free DOPC LUVs. The independent model was used to determine the interaction between teixobactin and lipid II. ITC data of R4L10-teixobactin were previously published.
# Staphylococcus simulans = test: Sytox green membrane damage assay, S. simulans; type: cell-based
# Method: The bacterial cultures were grown overnight at 30 °C in TSB media for S. simulans and at 37 °C in LB medium for Bacillus subtilis. Secondary cultures were grown for 3 h until OD600 = 0.5 was reached. The bacterial cells were then centrifuged at 1,500g for 10 min at 4 °C and washed twice with 10 ml of buffer (10 mM Tris, 100 mM NaCl, 1 mM MgCl2 and 0.5% glucose, pH 7.2). The bacterial cells were resuspended to an OD600 = 10 in the buffer and used for the experiment. […] For the assay, 1 μl of the bacterial suspension was added to 1 ml of buffer. For the ion leakage assays, 1 μl of the DiSC-2 probe from a 1 mM stock was added to the cuvette and the fluorescence was measured between a wavelength of 650 nm and 670 nm (bandwidth of […]) for 2 min before the addition of the antibiotic and 6 min after. For the Sytox green leakage assays, 1 μl of the Sytox green probe from a 0.25 mM stock was added to the cuvette and the fluorescence was measured between a wavelength of 500 nm and 520 nm (bandwidth of […]) for 2 min before the addition of the antibiotic and 6 min after. All experiments were performed in triplicates.
# [4] = Static 31P ssNMR: membrane perturbation; details: lipid II-doped DOPC large unilamellar vesicles
# [5] = source data Figure 3e, ITC, Avg of Expt 1-3
# [6] = source data Figure 3e, ITC, Expt 1
# [7] = source data Figure 3e, ITC, Expt 2
# [8] = source data Figure 3e, ITC, Expt 3
substance,measurement,setting,value
teixobactin,rigidity of lipid II pentapeptide in the complex (in words),[1],the pentapeptide is more rigid in the complex with teixobactin than with R4L10-teixobactin
same,antiparallel β-sheet formation (in words),[2],strongly supports that natural teixobactin also forms antiparallel β-sheets
same,Kd,"[3]; ITC, DOPC LUVs with 2 mol% lysine-lipid II, 20 mM HEPES 50 mM NaCl pH 7, 30 μM drug, 37 °C, mean of three experiments, b18 prints ± 0.008",0.08 µM
same,Kd,"[3]; source data Figure 3e, ITC pH 7, 37 °C, Expt 1",0.0674 µM
same,Kd,"[3]; source data Figure 3e, ITC pH 7, 37 °C, Expt 2",0.092 µM
same,Kd,"[3]; source data Figure 3e, ITC pH 7, 37 °C, Expt 3",0.0689 µM
same,dG,[3]; [5],-42.29
same,dH,[3]; [5],-35.03
same,dG,[3]; [6],-42.58
same,dH,[3]; [6],-34.03
same,dG,[3]; [7],-41.78
same,dH,[3]; [7],-37.92
same,dG,[3]; [8],-42.52
same,dH,[3]; [8],-33.14
same,-TdS,"[3]; source data Figure 3e, ITC, Plot, avg",-7.26
same,"membrane damage, Sytox green (in words)","Staphylococcus simulans; Sytox green, Gram-positive bacteria, 20 °C, pH 7.2, 2 min before and 6 min after antibiotic, triplicates","Although less pronounced than for nisin, teixobactin also showed clear effects with Sytox green"
same,time of membrane defects in intact bacteria,"Staphylococcus simulans; intact bacteria, DiSC / Sytox green assays",≤ 10 min
same,membrane perturbation by static 31P ssNMR (in words),[4],incubation with teixobactin markedly changed the signal
